This note sets out measurements from patent US10076519B2 (CYTOKINETICS, INC., priority 2010, dated 2018).

The first test concerns rabbit skeletal myofibrils (fast skeletal myofibrils). As to the kind of experiment: Activation of fast skeletal myofibrils (PUMA assay, PK/LDH-coupled ATPase at pCa25). It is filed as biochemical. The settings on record: AC1.4 determined according to the procedure of Example 39; reported as class symbols. The gist of the method: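 Detergent-washed rabbit psoas myofibrils (~90% fast fibres, calcium-regulated) assayed at calcium giving 25% of maximal ATPase rate (pCa25). ADP turnover coupled via pyruvate kinase/lactate dehydrogenase to NADH oxidation, read at 340 nm. Buffer 12 mM PIPES, 2 mM MgCl2, 1 mM DTT, pH 6.8; AC1.4 values derived.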
With `CC(C)(C)OC(=O)NCCNc1n[nH]c2ccc(-c3ccc(NCC(C)(C)c4ccc(F)cc4)nn3)cc12` [(tert-butoxy)-N-(2-{[5-(6-{[2-(4-fluorophenyl)-2-methylpropyl]amino}pyridazin-3-yl)(1H-indazol-3-yl)]amino}ethyl)carboxamide], the “Mean AC1.4” value is reported as “A (A=<1 uM)”.

On to `CC(C)(C)OC(=O)N(CC(C)(C)c1ncccc1F)c1ccc(-c2ccc3[nH]c(O)nc3c2)nn1` [(tert-butoxy)-N-[2-(3-fluoro(2-pyridyl))-2-methylpropyl]-N-[6-(2-hydroxybenzimidazol-5-yl)pyridazin-3-yl]carboxamide], for which the “Mean AC1.4” value is reported as “D (D=>20 uM)”.

For `CC(C)(C)OC(=O)N(CC(C)(C)c1ccc(F)cc1)c1ccc(-c2ccc3[nH]c(=O)c(=O)[nH]c3c2)nn1` [(tert-butoxy)-N-[6-(2,3-dioxo(1,4-dihydroquinoxalin-6-yl))pyridazin-3-yl]-N-[2-(4-fluorophenyl)-2-methylpropyl]carboxamide], the “Mean AC1.4” value was “D (D=>20 uM)”.

Consider `CC(C)(C)OC(=O)NCc1cccc(-c2ccc(NCC(C)(C)c3ccc(F)cc3)nn2)c1` [(tert-butoxy)-N-{[3-(6-{[2-(4-fluorophenyl)-2-methylpropyl]amino}pyridazin-3-yl)phenyl]methyl}carboxamide], for which the “Mean AC1.4” value was “B (B=1-10 uM)”.

`OCC1(CNc2ccc(-c3ccc4[nH]ncc4c3)nn2)CCC1` [({[(6-(1H-indazol-5-yl)pyridazin-3-yl)amino]methyl}cyclobut-yl)methan-1-ol]: the “Mean AC1.4” value is given as “D (D=>20 uM)”.

Take `COC(=O)c1ccc(NCC(C)(C)c2ccc(F)cc2)nn1` [Methyl 6-(2-(4-fluorophenyl)-2-methylpropylamino)pyridazine-3-carboxylate]: the “Mean AC1.4” value is recorded as “C (C=10-20 uM)”.

`CC(C)(CNc1ccc(C(=O)NC(CCC(N)=O)C(N)=O)nn1)c1ccc(F)cc1` (centres unmarked) [N-(1,3-dicarbamoylpropyl)(6-{[2-(4-fluorophenyl)-2-methylpropyl]amino}pyridazin-3-yl)carboxamide]: the “Mean AC1.4” value is “D (D=>20 uM)”.

On to `CC(C)CC(NC(=O)c1ccc(NCC(C)(C)c2ccc(F)cc2)nn1)C(N)=O` (centres unmarked) [N-(1-carbamoyl-3-methylbutyl)(6-{[2-(4-fluorophenyl)-2-methylpropyl]amino}pyridazin-3-yl)carboxamide], for which the “Mean AC1.4” value is on record as “C (C=10-20 uM)”.

As to `CC(C)(CNc1ccc(-c2cccc(C(=O)NCC(O)CO)c2)nn1)c1ccc(F)cc1` (centres unmarked) [N-(2,3-dihydroxypropyl)[3-(6-{[2-(4-fluorophenyl)-2-methylpropyl]amino}pyridazin-3-yl)phenyl]carboxamide], the “Mean AC1.4” value is reported as “B (B=1-10 uM)”.

On to `C=Cc1ccc(NCC(C)(C)c2ccc(F)cc2)nn1` [N-(2-(4-fluorophenyl)-2-methylpropyl)-6-vinylpyridazin-3-amine], for which the “Mean AC1.4” value is listed as “B (B=1-10 uM)”.

With `CC(C)(CNc1ccc(-c2cccc(C(=O)NCCN)c2)nn1)c1ccc(F)cc1` [N-(2-aminoethyl)[3-(6-{[2-(4-fluorophenyl)-2-methylpropyl]amino}pyridazin-3-yl)phenyl]carboxamide], the “Mean AC1.4” value is listed as “A (A=<1 uM)”.

Take `CC(C)(CNc1ccc(C(=O)NCCC(N)=O)nn1)c1ccc(F)cc1` [N-(2-carbamoylethyl)(6-{[2-(4-fluorophenyl)-2-methylpropyl]amino}pyridazin-3-yl)carboxamide]: the “Mean AC1.4” value is listed as “D (D=>20 uM)”.

Consider `CC(C)(CNc1ccc(-c2cccc(C(=O)NCCCN)c2)nn1)c1ccc(F)cc1` [N-(3-aminopropyl)[3-(6-{[2-(4-fluorophenyl)-2-methylpropyl]amino}pyridazin-3-yl)phenyl]carboxamide], for which the “Mean AC1.4” value is “B (B=1-10 uM)”.

Staying with this test, now noted: median AC1.4 class, procedure of Example 39.
Consider `NC1(C(=O)NCc2cnc(-c3ccc(NCC4(c5ncccc5F)CCC4)nn3)s2)CC1` [(aminocyclopropyl)-N-({2-[6-({[(3-fluoro(2-pyridyl))cyclobutyl]methyl}ami-no)pyridazin-3-yl](1,3-thiazol-5-yl)}methyl)carboxamide], for which the “Mean AC1.4” value was “A (A=<1 uM)”.

In the case of `c1ccc(-c2ccc(NC3(c4ccccc4)CCC3)nn2)cc1` [(phenylcyclobutyl)(6-phenylpyridazin-3-yl)amine], the “Mean AC1.4” value is on record as “B (B=1-10 uM)”.

Consider `CS(=O)(=O)NCc1cnc(-c2ccc(NCC3(c4ncccc4F)CCC3)nn2)s1` [({2-[6-({[(3-fluoro(2-pyridyl))cyclobutyl]methyl}ami-no)pyridazin-3-yl](1,3-thiazol-5-yl)}methyl)(methylsulfonyl)amine], for which the “Mean AC1.4” value is “B (B=1-10 uM)”.

Consider `O=C(NC1CCS(=O)(=O)C1)c1cnc(-c2ccc(NCC3(c4ncccc4F)CCC3)nn2)s1` (centres unmarked) [N-(1,1-dioxothiolan-3-yl){2-[6-({[(3-fluoro(2-pyridyl))cyclobutyl]methyl}ami-no)pyridazin-3-yl](1,3-thiazol-5-yl)}carboxamide], for which the “Mean AC1.4” value was “A (A=<1 uM)”.

Turning to `O=C(NCC(F)(F)CO)c1cnc(-c2ccc(NCC3(c4ncccc4F)CCC3)nn2)s1` [N-(2,2-difluoro-3-hydroxypropyl){2-[6-({[(3-fluoro(2-pyridyl))cyclobutyl]methyl}ami-no)pyridazin-3-yl](1,3-thiazol-5-yl)}carboxamide], the “Mean AC1.4” value is “A (A=<1 uM)”.

For `O=C(NCC(O)CO)c1cnc(-c2ccc(NCC3(c4ncccc4F)CCC3)nn2)s1` (centres unmarked) [N-(2,3-dihydroxypropyl){2-[6-({[(3-fluoro(2-pyridyl))cyclobutyl]methyl}ami-no)pyridazin-3-yl](1,3-thiazol-5-yl)}carboxamide], the “Mean AC1.4” value is on record as “A (A=<1 uM)”.

As to `NC(CNC(=O)c1cnc(-c2ccc(NCC3(c4ncccc4F)CCC3)nn2)s1)C(F)(F)F` (centres unmarked) [N-(2-amino-3,3,3-trifluoropropyl){2-[6-({[(3-fluoro(2-pyridyl))cyclobutyl]methyl}ami-no)pyridazin-3-yl](1,3-thiazol-5-yl)}carboxamide], the “Mean AC1.4” value was “B (B=1-10 uM)”.

On to `NCCNC(=O)c1cnc(-c2ccc(NCC3(c4ncccc4F)CCC3)nn2)s1` [N-(2-aminoethyl){2-[6-({[(3-fluoro(2-pyridyl))cyclobutyl]methyl}ami-no)pyridazin-3-yl](1,3-thiazol-5-yl)}carboxamide], for which the “Mean AC1.4” value is “A (A=<1 uM)”.

With `NCC(F)(F)CNC(=O)c1cnc(-c2ccc(NCC3(c4ncccc4F)CCC3)nn2)s1` [N-(3-amino-2,2-difluoropropyl){2-[6-({[(3-fluoro(2-pyridyl))cyclobutyl]methyl}ami-no)pyridazin-3-yl](1,3-thiazol-5-yl)}carboxamide], the “Mean AC1.4” value is reported as “A (A=<1 uM)”.

The same test, now with this note: median AC1.4 reported as class; procedure of Example 39.
On to `O=C(NC1CS(=O)(=O)C1)c1cccc(-c2ccc(NC[C@]3(c4ncccc4F)C[C@H](F)C3)nn2)c1` [N-(1,1-dioxothietan-3-yl){3-[6-({[3-fluoro-1-(3-fluoro(2-pyridyl))cyclobutyl]methyl}ami-no)pyridazin-3-yl]phenyl}carboxamide], for which the “Mean AC1.4” value is given as “B (B=1-10 uM)”.

As to `O=C(NC1CCS(=O)(=O)C1)c1cccc(-c2ccc(NC[C@]3(c4ncccc4F)C[C@H](F)C3)nn2)c1` (some centres unmarked) [N-(1,1-dioxothiolan-3-yl){3-[6-({[3-fluoro-1-(3-fluoro(2-pyridyl))cyclobutyl]methyl}ami-no)pyridazin-3-yl]phenyl}carboxamide], the “Mean AC1.4” value is “B (B=1-10 uM)”.

Turning to `CC(=O)N1CC(NC(=O)c2cccc(-c3ccc(NC[C@]4(c5ncccc5F)C[C@H](F)C4)nn3)c2)C1` [N-(1-acetylazetidin-3-yl){3-[6-({[3-fluoro-1-(3-fluoro(2-pyridyl))cyclobutyl]methyl}ami-no)pyridazin-3-yl]phenyl}carboxamide], the “Mean AC1.4” value is “B (B=1-10 uM)”.

`CC(=O)N1CC(NC(=O)c2ccc(F)c(-c3ccc(NC[C@]4(c5ncccc5F)C[C@H](F)C4)nn3)c2)C1` [N-(1-acetylazetidin-3-yl){4-fluoro-3-[6-({[3-fluoro-1-(3-fluoro(2-pyridyl))cyclobutyl]methyl}ami-no)pyridazin-3-yl]phenyl}carboxamide]: the “Mean AC1.4” value is recorded as “A (A=<1 uM)”.

With `O=C(Nc1nnc[nH]1)c1ccc(NCC2(c3ncccc3F)CCC2)nn1` [N-(1H-1,2,4-triazol-5-yl)[6-({[(3-fluoro(2-pyridyl))cyclobutyl]methyl}ami-no)pyridazin-3-yl]carboxamide], the “Mean AC1.4” value is given as “D (D=>20 uM)”.

In the case of `O=C(NCC(F)F)c1ccc(F)c(-c2ccc(NC[C@]3(c4ncccc4F)C[C@H](F)C3)nn2)c1` [N-(2,2-difluoroethyl){4-fluoro-3-[6-({[3-fluoro-1-(3-fluoro(2-pyridyl))cyclobutyl]methyl}ami-no)pyridazin-3-yl]phenyl}carboxamide], the “Mean AC1.4” value is reported as “B (B=1-10 uM)”.

`O=C(NCCF)c1ccc(F)c(-c2ccc(NC[C@]3(c4ncccc4F)C[C@H](F)C3)nn2)c1` [N-(2-fluoroethyl){4-fluoro-3-[6-({[3-fluoro-1-(3-fluoro(2-pyridyl))cyclobutyl]methyl}ami-no)pyridazin-3-yl]phenyl}carboxamide]: the “Mean AC1.4” value is “B (B=1-10 uM)”.

With `O=C(NC1CCOCC1)c1cccc(-c2ccc(NC[C@]3(c4ncccc4F)C[C@H](F)C3)nn2)c1` [N-(2H-3,4,5,6-tetrahydropyran-4-yl){3-[6-({[3-fluoro-1-(3-fluoro(2-pyridyl))cyclobutyl]methyl}ami-no)pyridazin-3-yl]phenyl}carboxamide], the “Mean AC1.4” value was “B (B=1-10 uM)”.

For the molecule `O=C(NC1CC(F)(F)C1)c1ccc(F)c(-c2ccc(NC[C@]3(c4ncccc4F)C[C@H](F)C3)nn2)c1` [N-(3,3-difluorocyclobutyl){4-fluoro-3-[6-({[3-fluoro-1-(3-fluoro(2-pyridyl))cyclobutyl]methyl}ami-no)pyridazin-3-yl]phenyl}carboxamide], the “Mean AC1.4” value is listed as “A (A=<1 uM)”.

Consider `N#Cc1nc[nH]c1NC(=O)c1ccc(NCC2(c3ncccc3F)CCC2)nn1` [N-(4-cyanoimidazol-5-yl)[6-({[(3-fluoro(2-pyridyl))cyclobutyl]methyl}ami-no)pyridazin-3-yl]carboxamide], for which the “Mean AC1.4” value is listed as “C (C=10-20 uM)”.
